Laboratory results reported in patent US9150829B2, “Culture of pluripotent and multipotent cells on microcarriers” (AGENCY FOR SCIENCE, TECHNOLOY AND RESEARCH, priority 2009, dated 2015).
Values after ≈ are worked out from the molar mass of the structure shown.

Legend:
hESC [1] = assay: hESC growth and passaging on uncoated microcarriers without Matrigel with ROCK inhibitor; format: cell-based, human
Description: Cells suspension obtained either from dispersed 2D colony culture or directly from liquid nitrogen storage (200×200 μm tissue obtained from 2D colony culture or as cell-microcarriers aggregates) are seeded at concentrations of 0.1-0.3×10^6/ml on microcarrier suspension (4 mg/ml). […] The media used are either MEF-CM or defined media. Medium is changed daily. The cultures are passaged weekly following either enzymatic treatment with collagenase or trypLE or following mechanical dissociating by repeated pipetting at a split ratio of 1:2 to 1:10. Replating of microcarrier cultures to 2D colony culture is done by placing confluent cell-microcarrier aggregates on Matrigel coated 6 cm tissue culture petridish with 8 mls of media, and culturing the cells for 7 days. Seeding of hESC on DE53, QA52, Tosoh, Cytodex 1 and Cytodex 3 microcarriers hESC were seeded on uncoated microcarriers and passaged weekly following the protocol of Example 3 and that of Oh et al., 2009 (Long term microcarrier suspension cultures of human embryonic stem cells, Stem Cell Research (2009)). All chemicals were purchased from Calbiochem. All inhibitors were diluted to their final working concentration in conditioned media prior to feeding hESC on microcarriers.

hESC [2] = assay: FACS of pluripotent markers in hESC on microcarriers; format: cell-based, human
Description: Characterisation was performed according to our recent paper by Oh et al., 2009 (Long term microcarrier suspension cultures of human embryonic stem cells, Stem Cell Research (2009)).
(§1) Briefly, expression levels of extracellular antigens TRA-1-60 and intracellular transcription factor, Oct-4 in hESC populations are assessed by immunofluorescence using flow cytometry. Cells are harvested as single cell suspensions using trypsin or trypLE express, filtered through a 40 μm sieve (BD) fixed, permeabilised (Caltag Laboratories) and incubated with primary antibodies to TRA-1-60 (1:50 dilution, Chemicon, MAB4360/4381) and to Oct-4 (1:20 dilution, Santa Cruz).
(§2) Cells are then washed with 1% BSA/PBS, and incubated in the dark with a 1:500 dilution of goat α-mouse antibody FITC-conjugated (DAKO). After incubation, the cells are again washed and resuspended in 1% BSA/PBS for analysis on a FACScan (Becton Dickinson FACS Calibur). All incubations are performed at room temperature for 15 min.

hESC (HES-2) [3] = assay: Pluripotent marker expression in HES-2 on matrix free microcarriers with ROCK inhibitors; format: cell-based, human; details: for expression of pluripotent marker Oct4 / expression of pluripotent marker Tra-1-60: DE53
Description: as §1, §2
A range of ROCK inhibitors (at 10 μM) were tested for their ability to allow hESC (HES-2) cell culture on matrix free cellulose DE53 microcarriers. These included fasudil, hydroxyfasudil and […] and were compared to a control (DE53 microcarriers coated in Matrigel).

PKCiota-Par6 interaction = biological target: T1, PKCiota-Par6 interaction (Homo sapiens, UniProt P41743); details: read-out: IC50 (PKCiota-Par6 interaction inhibitor); cited from earlier work
T1 sequence (P41743 10-122 limits assumed): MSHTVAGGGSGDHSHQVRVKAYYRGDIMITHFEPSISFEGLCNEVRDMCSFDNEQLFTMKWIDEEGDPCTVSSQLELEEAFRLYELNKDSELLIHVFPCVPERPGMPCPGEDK

[4] = biological target: phosphatidylinositol 3 (PI3) kinase; details: cited from earlier work
[5] = tested on: P14 kinase, PKC, MAP kinase or c-Src; details: concentration of 50 μM; cited from earlier work
iPS IMR90 cells [6] = assay: Human iPS cell growth on uncoated DE53 microcarriers with ROCK inhibitor; format: cell-based; details: uncoated DE53, mTeSR1, 10 μM daily, 12 passages
Description: (§3) iPS IMR90 cells (1.6×10^5 cells/ml) were cultured in wells of a 6-well plate with 20 mg of uncoated DE53, 5 ml of serum free media mTeSR1, 4 μl of ROCK inhibitor (Y27632) [10 μM]. 80% media refreshment and addition of inhibitor was carried out daily.

iPS IMR90 cells [7] = assay: Pluripotent marker expression in human iPS cells on DE53 microcarriers; format: cell-based; details: uncoated DE53, mTeSR1, 10 μM daily, 12 passages
Description: as §1, §2, §3

hESC (HES-2) [8] = assay: Pluripotent marker expression in HES-2 on matrix free microcarriers with ROCK inhibitors; format: cell-based, human; details: Cytodex 1, 10 μM, passage 5
Rho kinase (ROCK) = details: cited from earlier work
MLCK = MLCK (Homo sapiens, UniProt Q15746); details: cited from earlier work
PKC = details: read-out: Ki PKC; cited from earlier work
[9] = 10 μM, daily continuous addition, after 9 weeks
[10] = single dose addition (10 μM), after 6 weeks (P6)

Sequence of MLCK (Q15746 whole entry): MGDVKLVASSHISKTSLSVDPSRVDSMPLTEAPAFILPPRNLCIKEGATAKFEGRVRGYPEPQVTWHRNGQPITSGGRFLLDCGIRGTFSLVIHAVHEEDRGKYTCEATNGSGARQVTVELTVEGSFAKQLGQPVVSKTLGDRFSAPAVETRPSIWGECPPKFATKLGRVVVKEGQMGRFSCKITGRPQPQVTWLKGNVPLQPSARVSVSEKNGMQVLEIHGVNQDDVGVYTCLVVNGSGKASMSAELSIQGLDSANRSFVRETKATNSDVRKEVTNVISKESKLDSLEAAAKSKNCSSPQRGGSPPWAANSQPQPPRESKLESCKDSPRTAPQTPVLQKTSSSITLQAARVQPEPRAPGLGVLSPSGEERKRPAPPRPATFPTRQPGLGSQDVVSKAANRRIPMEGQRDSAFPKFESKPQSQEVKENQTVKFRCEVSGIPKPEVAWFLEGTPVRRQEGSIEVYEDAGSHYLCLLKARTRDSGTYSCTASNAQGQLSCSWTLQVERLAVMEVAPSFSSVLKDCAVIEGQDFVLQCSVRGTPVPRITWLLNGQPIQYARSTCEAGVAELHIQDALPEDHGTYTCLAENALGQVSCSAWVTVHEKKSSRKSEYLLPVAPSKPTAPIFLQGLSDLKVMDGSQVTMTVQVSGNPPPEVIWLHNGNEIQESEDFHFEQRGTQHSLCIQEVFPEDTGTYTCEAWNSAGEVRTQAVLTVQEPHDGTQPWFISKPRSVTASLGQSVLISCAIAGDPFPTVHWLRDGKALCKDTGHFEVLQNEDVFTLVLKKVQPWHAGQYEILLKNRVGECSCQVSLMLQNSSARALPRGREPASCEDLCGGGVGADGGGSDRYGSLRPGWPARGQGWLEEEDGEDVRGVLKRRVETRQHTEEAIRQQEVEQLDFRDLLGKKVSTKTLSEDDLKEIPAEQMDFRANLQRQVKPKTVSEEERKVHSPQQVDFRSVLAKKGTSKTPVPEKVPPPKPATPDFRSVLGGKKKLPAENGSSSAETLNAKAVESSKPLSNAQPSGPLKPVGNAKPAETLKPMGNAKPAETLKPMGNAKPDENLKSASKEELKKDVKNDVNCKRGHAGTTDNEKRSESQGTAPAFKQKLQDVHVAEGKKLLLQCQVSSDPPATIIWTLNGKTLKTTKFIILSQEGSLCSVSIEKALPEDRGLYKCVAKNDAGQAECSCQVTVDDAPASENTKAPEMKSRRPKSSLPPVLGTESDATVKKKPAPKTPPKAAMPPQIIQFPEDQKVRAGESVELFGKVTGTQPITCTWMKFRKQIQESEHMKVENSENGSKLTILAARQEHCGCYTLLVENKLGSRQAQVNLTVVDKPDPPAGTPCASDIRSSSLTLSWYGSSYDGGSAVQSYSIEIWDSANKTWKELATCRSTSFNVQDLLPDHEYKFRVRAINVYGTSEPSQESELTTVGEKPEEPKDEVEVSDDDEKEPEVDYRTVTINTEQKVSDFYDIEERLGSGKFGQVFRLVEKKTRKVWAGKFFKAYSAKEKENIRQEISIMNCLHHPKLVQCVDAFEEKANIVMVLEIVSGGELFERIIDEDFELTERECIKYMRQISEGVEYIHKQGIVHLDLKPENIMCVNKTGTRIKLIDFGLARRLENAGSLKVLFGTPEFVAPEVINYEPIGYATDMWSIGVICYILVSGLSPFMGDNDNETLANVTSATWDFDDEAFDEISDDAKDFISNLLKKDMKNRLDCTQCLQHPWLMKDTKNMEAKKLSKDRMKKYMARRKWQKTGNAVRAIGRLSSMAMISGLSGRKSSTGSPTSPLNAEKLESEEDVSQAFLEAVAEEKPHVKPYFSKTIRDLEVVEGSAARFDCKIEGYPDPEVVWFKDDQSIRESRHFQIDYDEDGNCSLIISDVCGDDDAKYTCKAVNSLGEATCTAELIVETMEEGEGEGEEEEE

Aurothioglucose
passage successfully reached (hESC [1]; uncoated DE53): 4 passage | expression of pluripotent markers Oct4 and mAb 84 (hESC [2]; cellulose microcarriers without Matrigel, passage 0 and 1, compared to Matrigel control): stable expression | expression of pluripotency markers Oct4 and mAb84 (hESC [2]; uncoated DE53, through passage 4): continued strong expression | expression of pluripotent marker Oct4 (hESC (HES-2) [3]; [9]): ~50% | expression of pluripotent marker Tra-1-60 (hESC (HES-2) [3]; [9]): ~60% | expression of pluripotent marker Oct4 (hESC (HES-2) [3]; [10]): 60% | expression of pluripotent marker Tra-1-60 (hESC (HES-2) [3]; [10]): ~70% | IC50 (PKCiota-Par6 interaction): 1000 nM

O=c1cc(N2CCOCC2)oc2c(-c3ccccc3)cccc12 [LY294002]
IC50 [4]: 1400 nM | IC50 PI3 kinase activity [4]: 0.43 µg/mL (≈ 1.4 µM) | effect on PI3 kinase activity ([4]; concentration of 50 μM): specifically abolished PI3 kinase activity | inhibition of other lipid and protein kinases [5]: did not inhibit

Cl.O=S(=O)(c1cccc2c(O)nccc12)N1CCCNCC1 [HA-1100]
expression of pluripotent marker Tra-1-60 (hESC (HES-2) [3]; [9]): about 80% | expression of pluripotent marker Oct4 (hESC (HES-2) [3]; [10]): 60% | expression of pluripotent marker Tra-1-60 (hESC (HES-2) [3]; [10]): ~50%

O=S(=O)(c1cccc2cnccc12)N1CCCNCC1 [HA-1077]
expression of pluripotent marker Tra-1-60 (hESC (HES-2) [3]; [9]): about 80% | expression of pluripotent marker Oct4 (hESC (HES-2) [3]; [10]): 60% | expression of pluripotent marker Tra-1-60 (hESC (HES-2) [3]; [10]): about 80%

C[C@@H](N)[C@H]1CC[C@H](C(=O)Nc2ccncc2)CC1 [Y-27632, (R)-(+)-trans-N-(4-Pyridyl)-4-(1-aminoethyl)-cyclohexanecarboxamide.2HCl]
consecutive weeks of passaging hESC (hESC [1]; cellulose DE53 microcarriers, no Matrigel, 10 μM): 9 weeks | cell numbers (hESC [1]; cellulose and Tosoh microcarriers, no Matrigel, passage 5): 4 million/well | consecutive weeks of passaging hESC (hESC [1]; cellulose, Tosoh, Cytodex 1 and Cytodex 3 microcarriers, no Matrigel): five | consecutive weeks of passaging hESC (hESC [1]; spherical polylysine Tosoh 65 micron microcarriers, no Matrigel): six | expression of pluripotent markers Oct4 and mAb 84 (hESC [2]; Cytodex 1, Cytodex 3, cellulose and Tosoh microcarriers without Matrigel, passage 5): robust expression | expression of pluripotent markers Oct4, mAb 84 and Tra-1-60 (hESC [2]; DE53 without Matrigel, 9 weeks): still robust | expression of pluripotent markers Oct4 and mAb 84 (hESC [2]; DE53 without Matrigel, over 3 weeks): stable expression | expression of pluripotent markers Oct4 and Tra-1-60 (hESC [2]; Tosoh polylysine microcarriers without Matrigel, passage 4): strongly expressed | pluripotent marker expression (Tra-1-60) versus Matrigel control cultures (hESC (HES-2) [3]; Cytodex 1 and DE53 microcarriers, 10 μM): similar | expression of Tra-1-60 (FACS) (hESC (HES-2) [3]; DE53, 10 μM, passage 5): ~92% | expression of pluripotent marker Oct4 (hESC (HES-2) [3]; [10]): 60% | expression of pluripotent marker Tra-1-60 (hESC (HES-2) [3]; [10]): about 80% | cell density (iPS IMR90 cells [6]): stable over 12 passages | Oct4 and Tra-1-60 expression (iPS IMR90 cells [7]): stable over 12 passages | expression of Tra-1-60 (FACS) (hESC (HES-2) [8]): ~94%

c1ccc2c(-c3ccncc3)c[nH]c2c1 [3-(4-Pyridyl)-1H-indole]
IC50 (Rho kinase (ROCK)): 25000 nM

Cc1cncc2cccc(S(=O)(=O)N3CCCNCC3C)c12 (stereo in doubt) [H-1152, (S)-(+)-2-Methyl-1-[(4-methyl-5-isoquinolinyl)sulfonyl]homopiperazine]
Ki (Rho kinase (ROCK)): 1.6 nM | Ki (MLCK): 10100 nM | Ki (PKC): 9270 nM

O=C(Nc1ccncc1)Nc1c(Cl)cc(Cl)cc1Cl [N-(4-Pyridyl)-N′-(2,4,6-trichlorophenyl) urea]
IC50 (Rho kinase (ROCK)): 200 nM
